Measurements published in patent publication US20170150719A1, “FUNGICIDAL PYRAZOLES AND THEIR MIXTURES” (E I DU PONT DE NEMOURS AND COMPANY, priority 2010, published 2017).

Experiments:
[1] = tested on: Phytophthora infestans; experiment: whole plant or invertebrate; type: in vivo; conditions: for pest or weed control at 200 µg/mL: Phytophthora infestans, in Solanum lycopersicum, read-out: Test C rating (disease control); for Test C rating (% disease control): tomato late blight, preventive spray, 100 = 100% disease control, rating without asterisk
[2] = tested on: Septoria tritici; experiment: Test F: wheat leaf blotch, preventive spray on wheat seedlings, visual disease rating; type: in vivo; conditions: Zymoseptoria tritici, 100 = 100% disease control, 0 = no disease control relative to the controls
Description: (§1) A hyphen (-) indicates no test results.

[3] = tested on: Puccinia recondita f. sp. tritici; experiment: Test G: wheat leaf rust, spray after inoculation (curative) on wheat seedlings, visual disease rating; type: in vivo; conditions: 100 = 100% disease control; for pest or weed control at 200 µg/mL: sprayed after inoculation, 0 = no disease control; for Test G rating (% disease control): spray after inoculation, rating without asterisk
Description: as §1

[4] = tested on: Puccinia recondita f. sp. tritici; experiment: Test H: wheat leaf rust, preventive spray on wheat seedlings, visual disease rating; conditions: 100 = 100% disease control; for pest or weed control at 200 µg/mL: read-out: Test H rating (disease control), wheat leaf rust, sprayed the day before inoculation, 0 = no disease control; for Test H rating (% disease control): wheat leaf rust, preventive spray, rating without asterisk
[5] = tested on: Botrytis cinerea; experiment: Test A: tomato Botrytis, preventive spray on tomato seedlings, visual disease rating; conditions: 100 = 100% disease control; for pest or weed control at 200 µg/mL: Botrytis cinerea, in Solanum lycopersicum, read-out: Test A rating (disease control), tomato Botrytis, 0 = no disease control relative to the controls; for Test A rating (% disease control): tomato Botrytis, preventive spray, 0 = no control relative to controls, rating without asterisk
[6] = tested on: Alternaria solani; experiment: Test B: tomato early blight, preventive spray on tomato seedlings, visual disease rating; conditions: for pest or weed control at 200 µg/mL: Alternaria solani, in Solanum lycopersicum, read-out: Test B rating (disease control); for Test B rating (% disease control): tomato early blight, preventive spray, 100 = 100% disease control, rating without asterisk
[7] = tested on: Blumeria graminis f. sp. tritici; experiment: Test I: wheat powdery mildew, preventive spray on wheat seedlings, visual disease rating; conditions: 100 = 100% disease control; for pest or weed control at 200 µg/mL: Blumeria graminis, in Triticum aestivum, read-out: Test I rating (disease control), wheat powdery mildew, 0 = no disease control relative to the controls; for Test I rating (% disease control): wheat powdery mildew, preventive spray, rating without asterisk
[8] = tested on: Septoria nodorum; experiment: Test E: Septoria glume blotch, preventive spray on wheat seedlings, visual disease rating; conditions: 100 = 100% disease control; for pest or weed control at 200 µg/mL: Parastagonospora nodorum, in Triticum aestivum, read-out: Test E rating (disease control), Septoria glume blotch, 0 = no disease control relative to the controls; for Test E rating (% disease control): Septoria glume blotch on wheat, preventive spray, rating without asterisk
Description: General protocol for preparing test suspensions for Tests A-I: the test compounds were first dissolved in acetone in an amount equal to 3% of the final volume and then suspended at the desired concentration (in ppm) in acetone and purified water (50/50 mix by volume) containing 250 ppm of the surfactant Trem® 014 (polyhydric alcohol esters). The resulting test suspensions were then used in Tests A-I. Each test was conducted in triplicate, and the results were averaged. Spraying a 200 ppm test suspension to the point of run-off on the test plants was the equivalent of a rate of about 800 g/ha. Unless otherwise indicated, the rating values indicate a 200 ppm test suspension was used. (An asterisk “*” next to the rating value indicates a 40 ppm test suspension was used.)
The test suspension was sprayed to the point of run-off on wheat seedlings. The following day the seedlings were inoculated with a spore suspension of Septoria nodorum (the causal agent of Septoria glume blotch) and incubated in a saturated atmosphere at 24° C. for 48 h, and then moved to a growth chamber at 20° C. for 9 days, after which time visual disease ratings were made.

[9] = tested on: Blumeria graminis f. sp. tritici; experiment: Test K (K1-K5): wheat powdery mildew, Compound 81 alone and in mixtures, observed and Colby expected control; type: in vivo; conditions: for Test K5 Obsd, disease control rating: wheat powdery mildew
[10] = tested on: Puccinia recondita f sp. tritici; experiment: Test L (L1-L5): wheat leaf rust, Compound 81 alone and in mixtures, observed and Colby expected control; type: in vivo; conditions: for Test L5 Obsd, disease control rating: wheat leaf rust
[11] = tested on: Septoria tritici; experiment: Test M (M1-M5): wheat leaf blotch, Compound 81 alone and in mixtures, observed and Colby expected control; type: in vivo

Cc1nn(C)c(Nc2ccc(F)cc2Cl)c1-c1ccc(F)cc1Cl [Compound 47, N,4-bis(2-chloro-4-fluorophenyl)-1,3-dimethyl-1H-pyrazol-5-amine]
pest or weed control at 200 µg/mL [1]: 0%
pest or weed control at 200 µg/mL [2]: 96%
pest or weed control at 200 µg/mL [3]: 93%
pest or weed control at 200 µg/mL [4]: 99%
pest or weed control at 200 µg/mL [5]: 100%
pest or weed control at 200 µg/mL [6]: 99%
pest or weed control at 200 µg/mL [7]: 100%
pest or weed control at 200 µg/mL [8]: 82%

Cc1nn(C)c(Nc2c(F)cc(F)cc2Cl)c1-c1ccc(F)cc1Cl [Compound 82, N-(2-chloro-4,6-difluorophenyl)-4-(2-chloro-4-fluorophenyl)-1,3-dimethyl-1H-pyrazol-5-amine]
pest or weed control at 200 µg/mL [1]: 0%
pest or weed control at 200 µg/mL [2]: 100%
pest or weed control at 200 µg/mL [3]: 97%
pest or weed control at 200 µg/mL [4]: 100%
pest or weed control at 200 µg/mL [5]: 99%
pest or weed control at 200 µg/mL [6]: 100%
pest or weed control at 200 µg/mL [7]: 100%
pest or weed control at 200 µg/mL [8]: 100%

Cc1nn(C)c(Nc2c(F)cc(Cl)cc2Cl)c1-c1ccc(F)cc1Cl [Compound 136, 4-(2-chloro-4-fluorophenyl)-N-(2,4-dichloro-6-fluorophenyl)-1,3-dimethyl-1H-pyrazol-5-amine]
pest or weed control at 200 µg/mL [1]: 0%
pest or weed control at 200 µg/mL [2]: 100%
pest or weed control at 200 µg/mL [3]: 100%
pest or weed control at 200 µg/mL [4]: 100%
pest or weed control at 200 µg/mL [5]: 100%
pest or weed control at 200 µg/mL [6]: 100%
pest or weed control at 200 µg/mL [7]: 100%
pest or weed control at 200 µg/mL [8]: 100%

Cc1nn(C)c(Nc2c(Cl)cc(F)cc2Cl)c1-c1ccc(F)cc1Cl [Compound 138, 4-(2-chloro-4-fluorophenyl)-N-(2,6-dichloro-4-fluorophenyl)-1,3-dimethyl-1H-pyrazol-5-amine]
pest or weed control at 200 µg/mL [1]: 0%
pest or weed control at 200 µg/mL [2]: 100%
pest or weed control at 200 µg/mL [3]: 17%
pest or weed control at 200 µg/mL [4]: 100%
pest or weed control at 200 µg/mL [5]: 100%
pest or weed control at 200 µg/mL [6]: 66%
pest or weed control at 200 µg/mL [7]: 99%
pest or weed control at 200 µg/mL [8]: 0%

Cc1nn(C)c(Nc2c(Cl)cc(F)cc2Cl)c1-c1c(F)cccc1F [Compound 142, N-(2,6-dichloro-4-fluorophenyl)-4-(2,6-difluorophenyl)-1,3-dimethyl-1H-pyrazol-5-amine]
pest or weed control at 200 µg/mL [1]: 0%
pest or weed control at 200 µg/mL [2]: 100%
pest or weed control at 200 µg/mL [3]: 0%
pest or weed control at 200 µg/mL [4]: 100%
pest or weed control at 200 µg/mL [5]: 100%
pest or weed control at 200 µg/mL [6]: 96%
pest or weed control at 200 µg/mL [7]: 100%
pest or weed control at 200 µg/mL [8]: 92%

Cc1nn(C)c(Nc2c(F)cc(F)cc2Br)c1-c1c(F)cccc1F [Compound 146, N-(2-bromo-4,6-difluorophenyl)-4-(2,6-difluorophenyl)-1,3-dimethyl-1H-pyrazol-5-amine]
pest or weed control at 200 µg/mL [1]: 0%
pest or weed control at 200 µg/mL [2]: 100%
pest or weed control at 200 µg/mL [3]: 74%
pest or weed control at 200 µg/mL [4]: 98%
pest or weed control at 200 µg/mL [6]: 100%
pest or weed control at 200 µg/mL [7]: 100%
pest or weed control at 200 µg/mL [8]: 100%

Cc1nn(C)c(Nc2c(F)cc(F)cc2Br)c1-c1ccc(F)cc1Br [Compound 195, N-(2-bromo-4,6-difluorophenyl)-4-(2-bromo-4-fluorophenyl)-1,3-dimethyl-1H-pyrazol-5-amine]
Test C rating (% disease control) [1]: 0%
Test G rating (% disease control) [3]: 89%
Test B rating (% disease control) [6]: 100%
Test E rating (% disease control) [8]: 99%

Cc1nn(C)c(Nc2c(F)cccc2Cl)c1-c1ccc(F)cc1F [Compound 275, N-(2-chloro-6-fluorophenyl)-4-(2,4-difluorophenyl)-1,3-dimethyl-1H-pyrazol-5-amine]
Test C rating (% disease control) [1]: 0%
Test G rating (% disease control) [3]: 9%
Test B rating (% disease control) [6]: 99%
Test E rating (% disease control) [8]: 60%

CCOc1ccc(-c2c(C)nn(C)c2Nc2c(F)cc(F)cc2Cl)c(F)c1 [compound 188]
Test C rating (% disease control) [1]: 0%
Test G rating (% disease control) [3]: 0%
Test H rating (% disease control) [4]: 98%
Test A rating (% disease control) [5]: 100%
Test B rating (% disease control) [6]: 99%
Test I rating (% disease control) [7]: 98%
Test E rating (% disease control) [8]: 92%

CCOc1ccc(-c2c(C)nn(C)c2Nc2c(F)cc(Cl)cc2F)c(F)c1 [compound 189]
Test C rating (% disease control) [1]: 0%
Test G rating (% disease control) [3]: 0%
Test H rating (% disease control) [4]: 98%
Test A rating (% disease control) [5]: 100%
Test B rating (% disease control) [6]: 88%
Test I rating (% disease control) [7]: 98%
Test E rating (% disease control) [8]: 90%

CCOc1ccc(-c2c(C)nn(C)c2Nc2c(F)cc(Cl)cc2Cl)c(F)c1 [compound 190]
Test C rating (% disease control) [1]: 0%
Test G rating (% disease control) [3]: 9%
Test H rating (% disease control) [4]: 96%
Test A rating (% disease control) [5]: 100%
Test B rating (% disease control) [6]: 82%
Test I rating (% disease control) [7]: 95%
Test E rating (% disease control) [8]: 0%

COc1ccc(-c2c(C)nn(C)c2Nc2c(F)cc(Cl)cc2Cl)c(F)c1 [compound 191]
Test C rating (% disease control) [1]: 0%
Test G rating (% disease control) [3]: 46%
Test H rating (% disease control) [4]: 99%
Test A rating (% disease control) [5]: 100%
Test B rating (% disease control) [6]: 99%
Test I rating (% disease control) [7]: 99%
Test E rating (% disease control) [8]: 92%

CC(C1CC1)C(O)(Cn1cncn1)c1ccc(Cl)cc1 (stereo not shown) [cyproconazole]
Test K5 Obsd, disease control rating ([9]; component (b) 0.016 ppm alone): 64%
Test K5 Obsd, disease control rating ([9]; component (b) 0.08 ppm alone): 64%
Test K5 Obsd, disease control rating ([9]; component (b) 0.4 ppm alone): 79%
Test K5 Obsd, disease control rating ([9]; component (b) 2 ppm alone): 96%
Test L5 Obsd, disease control rating ([10]; component (b) 0.016 ppm alone): 27%
Test L5 Obsd, disease control rating ([10]; component (b) 0.08 ppm alone): 80%
Test L5 Obsd, disease control rating ([10]; component (b) 0.4 ppm alone): 92%
Test L5 Obsd, disease control rating ([10]; component (b) 2 ppm alone): 100%
Test M2 Obsd, disease control rating ([11]; component (b) 0.4 ppm alone): 0%
Test M2 Obsd, disease control rating ([11]; component (b) 2 ppm alone): 0%
Test M2 Obsd, disease control rating ([11]; component (b) 10 ppm alone): 0%
Test M2 Obsd, disease control rating ([11]; component (b) 40 ppm alone): 98%

CC(C)C1C2CCC1c1c(NC(=O)c3cn(C)nc3C(F)F)cccc12 (stereo not shown) [isopyrazam]
Test K3 Obsd ([9]; component (b) 0.08 ppm alone): 0%
Test K3 Obsd ([9]; component (b) 0.4 ppm alone): 50%
Test K3 Obsd ([9]; component (b) 2 ppm alone): 99%
Test K3 Obsd ([9]; component (b) 10 ppm alone): 99%
Test L5 Obsd, disease control rating ([10]; component (b) 0.016 ppm alone): 68%
Test L5 Obsd, disease control rating ([10]; component (b) 0.08 ppm alone): 89%
Test L5 Obsd, disease control rating ([10]; component (b) 0.4 ppm alone): 100%
Test L5 Obsd, disease control rating ([10]; component (b) 2 ppm alone): 100%
Test M2 Obsd, disease control rating ([11]; component (b) 0.08 ppm alone): 0%
Test M2 Obsd, disease control rating ([11]; component (b) 0.4 ppm alone): 77%
Test M2 Obsd, disease control rating ([11]; component (b) 2 ppm alone): 93%
Test M2 Obsd, disease control rating ([11]; component (b) 10 ppm alone): 100%

CC(C)CC(C)c1sccc1NC(=O)c1cn(C)nc1C(F)(F)F (stereo not shown) [penthiopyrad]
Test K3 Obsd ([9]; component (b) 0.08 ppm alone): 0%
Test K3 Obsd ([9]; component (b) 0.4 ppm alone): 0%
Test K3 Obsd ([9]; component (b) 2 ppm alone): 99%
Test K3 Obsd ([9]; component (b) 10 ppm alone): 100%
Test L5 Obsd, disease control rating ([10]; component (b) 0.016 ppm alone): 9%
Test L5 Obsd, disease control rating ([10]; component (b) 0.08 ppm alone): 55%
Test L5 Obsd, disease control rating ([10]; component (b) 0.4 ppm alone): 68%
Test L5 Obsd, disease control rating ([10]; component (b) 2 ppm alone): 99%
Test M2 Obsd, disease control rating ([11]; component (b) 0.08 ppm alone): 0%
Test M2 Obsd, disease control rating ([11]; component (b) 0.4 ppm alone): 0%

C=CCOC1=NS(=O)(=O)c2ccccc21 [probenazole]
Test K1 Obsd ([9]; component (b) 10 ppm alone): 68%
Test K1 Obsd ([9]; component (b) 40 ppm alone): 21%
Test K1 Obsd ([9]; component (b) 200 ppm alone): 71%
Test L1 Obsd ([10]; component (b) 10 ppm alone): 9%
Test L1 Obsd ([10]; component (b) 40 ppm alone): 18%
Test L1 Obsd ([10]; component (b) 200 ppm alone): 18%
Test M1 Obsd, disease control rating ([11]; component (b) 10 ppm alone): 0%
Test M1 Obsd, disease control rating ([11]; component (b) 40 ppm alone): 0%
Test M1 Obsd, disease control rating ([11]; component (b) 200 ppm alone): 0%

Fc1ccc(Oc2ccnc3cc(Cl)cc(Cl)c23)cc1 [quinoxyfen]
Test K5 Obsd, disease control rating ([9]; component (b) 0.016 ppm alone): 21%
Test K5 Obsd, disease control rating ([9]; component (b) 0.08 ppm alone): 29%
Test K5 Obsd, disease control rating ([9]; component (b) 0.4 ppm alone): 64%
Test K5 Obsd, disease control rating ([9]; component (b) 2 ppm alone): 93%
Test L1 Obsd ([10]; component (b) 10 ppm alone): 0%
Test L1 Obsd ([10]; component (b) 40 ppm alone): 0%
Test L1 Obsd ([10]; component (b) 200 ppm alone): 0%
Test M5 Obsd disease control rating ([11]; component (b) alone 10 ppm): 0%
Test M5 Obsd disease control rating ([11]; component (b) alone 40 ppm): 0%
Test M5 Obsd disease control rating ([11]; component (b) alone 200 ppm): 8%
